The numbers were not newly measured in patent US20040192587A9, “Zinc formulations as a prophylactic treatment for the common cold” (priority 2002, published 2004), which cites them from elsewhere.

The subject of one data set is rhinovirus common colds. The settings on record: large prophylactic oral doses, as much as 2 grams per day.
The next data set concerns common cold. The note with it: tablet with about 23 mg elemental zinc dissolved in the mouth every two hours during 12 to 16 waking hours; sixty-five humans; untreated group 10.8 days.

For the compound `O=C1O[C@H]([C@@H](O)CO)C(O)=C1O` [vitamin C], the “frequency of acquisition of rhinovirus common colds or amount of virus shedding” value with rhinovirus common colds is reported as “have not altered”.

Turning to zinc gluconate, the duration of colds in the data set on common cold is 3.9 days.
